Results: US9107415B2, “2-(substituted-phenyl)-cyclopentane-1,3-dione compounds, and derivatives thereof” (Syngenta Limited, priority 2011, dated 2015)

What was measured:
Assay type in all cases: in vivo
[1] = test system: Solanum nigrum (SOLNI); experiment: Biological Example 1 glasshouse screen, post-emergence herbicidal activity; conditions: application rate 250 g/ha, evaluated after 13 days
Description: (§1) Seeds of a variety of test species were sown in standard soil in pots. After cultivation for one day (pre-emergence) or after 8 days cultivation (post-emergence) under controlled conditions in a glasshouse (at 24/16°C., day/night; 14 hours light; 65% humidity), the plants were sprayed with an aqueous spray solution derived from the formulation of the “technical”(i.e. unformulated) active ingredient in acetone/water (50:50) solution containing 0.5% Tween 20 (polyoxyethylene sorbitan monolaurate, CAS Registry Number 9005-64-5). The test plants were then grown in a glasshouse under controlled conditions in a glasshouse (at 24/16°C., day/night; 14 hours light; 65% humidity) and watered twice daily. After 13 days for pre- or post-emergence, the test was evaluated visually, and an assessed percentage phytotoxicity score given for each herbicidal application on each plant/weed species (with 100%=total damage to plant; 0%=no damage to plant).
(§2) Test plants: Alopecurus myosuroides (ALOMY), Setaria faberi (SETFA), Echinochloa crus-galli (ECHCG), Solanum nigrum (SOLNI), Amaranthus retroflexus (AMARE) and Ipomoea hederacea (IPOHE). ALOMY, SETFA and ECHCG are grassy monocotyledonous weeds. SOLNI, AMARE and IPOHE are dicotyledonous (broadleaved) weeds.

[2] = test system: Ipomoea hederacea (IPOHE); experiment: as above; conditions: application rate 250 g/ha, evaluated after 13 days
Description: as §1, §2

[3] = test system: Setaria faberi (SETFA); experiment: as above; conditions: application rate 250 g/ha, evaluated after 13 days
Description: as §1, §2

[4] = test system: Amaranthus retroflexus (AMARE); experiment: as above; conditions: application rate 250 g/ha, evaluated after 13 days
Description: as §1, §2

[5] = test system: Alopecurus myosuroides (ALOMY); experiment: as above; conditions: 312 h, application rate 250 g/ha, evaluated after 13 days, read-out: ALOMY percentage phytotoxicity
Summary of the method: (§3)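 Read-out: visual percentage phytotoxicity at 13 days, 0% no damage to 100% total damage. Spray solution of unformulated compound in 50:50 acetone/water plus 0.5% Tween 20, applied to potted plants one day after sowing (pre) or after 8 days' growth (post).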

[6] = test system: Echinochloa crus-galli (ECHCG); experiment: as above; conditions: 312 h, application rate 250 g/ha, evaluated after 13 days, read-out: ECHCG percentage phytotoxicity
Summary of the method: as §3

[7] = test system: Alopecurus myosuroides (ALOMY); experiment: Biological Example 2 post-emergence herbicidal activity (comparative data); conditions: 312 h, read-out: ALOMY percentage phytotoxicity; for pest or weed control at 15.625 g/ha: 15.625 g/ha application rate; for pest or weed control at 62.5 g/ha: 62.5 g/ha application rate
Description: as §1
(§4) Comparative herbicidal data are given for certain exemplified compounds with 4-(prop-1-ynyl)-2,6-dimethylphenyl or 4-(chloroethynyl)-2,6-dimethylphenyl headgroups, compared to the corresponding comparative compounds with 4-ethynyl-2,6-dimethylphenyl headgroups, as follows.
(§5) Except where specified otherwise, the glasshouse screen for herbicidal activity is substantially the same as that presented in Biological Example 1 hereinabove. The weed abbreviations are as defined in Biological Example 1.

[8] = test system: Setaria faberi (SETFA); experiment: as above
Description: as §1, §4, §5

[9] = test system: Echinochloa crus-galli (ECHCG); experiment: as above; conditions: 312 h, read-out: ECHCG percentage phytotoxicity; for pest or weed control at 15.625 g/ha: 15.625 g/ha application rate; for pest or weed control at 62.5 g/ha: 62.5 g/ha application rate
Description: as §1, §4, §5

[10] = test system: Solanum nigrum (SOLNI); experiment: Biological Example 1 glasshouse screen, pre-emergence herbicidal activity; conditions: application rate 250 g/ha, evaluated after 13 days
Description: as §1, §2

[11] = test system: Ipomoea hederacea (IPOHE); experiment: as above; conditions: application rate 250 g/ha, evaluated after 13 days
Description: as §1, §2

[12] = test system: Setaria faberi (SETFA); experiment: as above; conditions: application rate 250 g/ha, evaluated after 13 days
Description: as §1, §2

[13] = test system: Amaranthus retroflexus (AMARE); experiment: as above; conditions: application rate 250 g/ha, evaluated after 13 days
Description: as §1, §2

[14] = test system: Alopecurus myosuroides (ALOMY); experiment: as above; conditions: 312 h, application rate 250 g/ha, evaluated after 13 days, read-out: ALOMY percentage phytotoxicity
Summary of the method: as §3

[15] = test system: Echinochloa crus-galli (ECHCG); experiment: as above; conditions: 312 h, application rate 250 g/ha, evaluated after 13 days, read-out: ECHCG percentage phytotoxicity
Summary of the method: as §3

SMILES	SOLNI percentage phytotoxicity [1] [%]	IPOHE percentage phytotoxicity [2] [%]	SEFTA percentage phytotoxicity [3] [%]	AMARE percentage phytotoxicity [4] [%]	pest or weed control at 250 g/ha [5] [%]	pest or weed control at 250 g/ha [6] [%]	pest or weed control at 15.625 g/ha [7] [%]	pest or weed control at 62.5 g/ha [7] [%]	SETFA percentage phytotoxicity ([8]; 15.625 g/ha application rate) [%]	SETFA percentage phytotoxicity ([8]; 62.5 g/ha application rate) [%]	pest or weed control at 15.625 g/ha [9] [%]	pest or weed control at 62.5 g/ha [9] [%]	SOLNI percentage phytotoxicity [10] [%]	IPOHE percentage phytotoxicity [11] [%]	SEFTA percentage phytotoxicity [12] [%]	AMARE percentage phytotoxicity [13] [%]	pest or weed control at 250 g/ha [14] [%]	pest or weed control at 250 g/ha [15] [%]
Cc1cc(C#CCl)cc(C)c1C1C(=O)CCC1=O [Compound A-16]	20	10	70	10	50	100	10	10	0	80	70	90	10	0	90	40	50	100
Cc1cc(C#CCl)cc(C)c1C1C(=O)C2C(C1=O)[C@H]1CC[C@@H]2O1 (stereo partly drawn) [Compound A-17]	70	70	90	10	80	100	60	70	80	80	100	100	80	80	100	100	80	100
